Patent US20110118218A1, “TREATING HYPERTENSION WITH 25-HYDROXYVITAMIN D3” (priority 2008, published 2011)

Experiments:
[1] = Human clinical trial: blood pressure after daily/weekly oral treatment for 4 months; type: in vivo; conditions: for Diastolic blood pressure (GLM least square mean) / Systolic blood pressure (GLM least square mean): healthy postmenopausal women, 20 μg per day or 140 μg per week oral, repeated measurement analysis over 13 visits adjusted for baseline blood pressure and time; for Effect on blood pressure (in words): mildly hypertensive subjects, none above 146/95 mmHg
From the text: Each group includes five subjects. They are followed for four months in Ziirich, Switzerland during the winter.
Equimolar quantities of both substances were investigated. […] As the maximum pre-existing baseline concentration of 25-hydroxyvitamin D3 will be 50 nmol/L, it is not anticipated that subjects will approach the range where disturbance in Ca^2+ homeostasis has been observed.
Each dosage was consumed orally at breakfast.
For blood pressure assessments a standard protocol was used (OMRON professional apparatus) to measure diastolic and systolic blood pressure in Week 1 on visit 2 (baseline) and the remaining 4 days of Week 1. The assessments continued at each visit of Weeks 2, 3, 5, 7, 9, 11, 13 and 15.
Treatment duration was 4 months.

[2] = cited from earlier work
[3] = 20 μg per day or 140 μg per week, 4 months, 13 visits, adjusted for baseline blood pressure and time
[4] = daily or weekly treatment, identical dosages

Row | SMILES | Diastolic blood pressure, change vs. daily/weekly Vitamin D3 [1, 3] [mmHg] | Systolic blood pressure, change vs. daily/weekly Vitamin D3 [1, 3] [mmHg] | Reduction of diastolic blood pressure versus Vitamin D3 [1, 4] [mmHg] | Reduction of systolic blood pressure versus Vitamin D3 [1, 4] [mmHg] | Diastolic blood pressure (GLM least square mean) ([1]; 4 months) [mmHg] | Systolic blood pressure (GLM least square mean) ([1]; 4 months) [mmHg] | Effect on blood pressure (in words) [1] | Blood concentration of 25-hydroxyvitamin D3 at which hypercalcemia may occur ([2]; in vivo) | Blood concentration of 25-hydroxyvitamin D3 resulting from ingestion as dietary supplement ([2]; ingestion of vitamin D3 at the safe upper level (250 μg/day))
1 | C=C1CC[C@H](O)C/C1=C/C=C1\CCC[C@]2(C)[C@@H]([C@H](C)CCCC(C)(C)O)CC[C@@H]12 [25-OH D3, 25-hydroxyvitamin D3] | −1.4 | −6.1 | 1.4 | 6.1 | 68.9 | 111.1 | very effective reduction of blood pressure | greater than 375 nmol/L | –
2 | C=C1CC[C@H](O)C/C1=C/C=C1\CCC[C@]2(C)[C@@H]([C@H](C)CCCC(C)C)CC[C@@H]12 [Vitamin D3, cholecalciferol] | – | – | – | – | 70.3 | 117.2 | no effect | – | about 200 nmol/L
